Assay results published in US20250340743A1, “Polyetheramine-Based Multifunctional Booster” (Troy Technology II, Inc., priority 2022, published 2025).
Like-named read-outs stand apart in the source and are kept apart here.

System: Pseudomonas aeruginosa (ATCC #10145)
Experiment: MIC via microbroth dilution
Type: cell-based
Description: To examine the preservative boosting potential of these dispersions, minimum inhibitory concentration (MIC) testing was performed. MICs were determined via microbroth dilution using the following specific test parameters:
Necessary organism dilutions via OD600 were calculated based on OD600 of 1.0 being equivalent to 8×10^8 CFU/mL. Biocide dilutions were performed in 2-fold increments for each assay.

Row | SMILES | Fold Reduction of MIC over control without booster (Table 7, with 0.075% “1737-72”:AMP95 (1:1)) [fold] | Fold Reduction of MIC over control without booster (Table 7, with 0.15% “1737-72”:AMP95 (1:1)) [fold] | fold lower MIC values (biocide in combination with magnesium oxide version “1737-34”) [fold] | Fold Reduction of MIC over control without booster [fold] | fold lower MIC values
1 | O=c1[nH]sc2ccccc12 [BIT, 1,2-benzisothiazolin-3-one] | 2 | 2 | 2 | – | –
2 | [Na+].[O-][n+]1ccccc1[S-] [sodium pyrithione] | – | – | – | 64 | clearly antagonistic
